Literature values, collected in EP4368198A1, “COMPOSITION FOR DELIVERING A PROTEIN OR A POLYPEPTIDE TO A EUKARYOTIC CELL” (Klinikum der Universität München, priority 2022, dated 2024).

Details: normalized, most hydrophobic residue 100, glycine 0, Monera et al. 1995

- hydrophobicity index At pH 7: -46 (used pH 2)
Compound: O=C(O)[C@@H]1CCCN1 [Proline (pro), Proline]
